Experiments:
[1] = tested on: PAF (Platelet-activating-Factor)-Acether-Ödem; assay: PAF-acether paw oedema in the rat; format: in vivo, Ratte; conditions: 0.5 h before PAF-acether 2 ug/animal subplantar, oedema read 1 h later
Protocol: Die antiallergische Wirkung wird unter anderem durch Untersuchungen im PAF (Platelet-activating-Factor)-Acether-Ödem an der Ratte belegt.
Prinzip der Methode ist es, durch subplantare Injektion von PAF-Acether 2 ug/Tier ein lokal begrenztes Ödem beziehungsweise eine Entzündung an der Rattenpfote zu erzeugen. Die Untersuchungen werden in Anlehnung an die Methode nach SWINGLE und REITER (Agents and actions, 18, 358-365, (1986)) durchgeführt. Die Tiere erhalten die Prüfsubstanzen 0,5 Stunden vor der Auslösung des Ödems verabreicht. 1 Stunde danach wird das Ödem plethysmographisch ermittelt.

EEG der Ratte = assay: Tele-Stereo-EEG in the rat: prevention of EEG changes caused by hypoglycaemic or ischaemic insult; format: in vivo; conditions: 30 mg/kg i.p., compared with pre-dose value (Vorwert)
Protocol: Die erfindungsgemäßen Verbindungen der Formel zeigen beispielsweise im Modell zum Nachweis der Prevention der durch hypoglykämischen beziehungsweise ischämischen Insult verursachte Veränderungen im EEG der Ratte (im Vergleich zum Vorwert) bei der parenteralen Applikation (i.p. = intraperitoneal) bei 30 mg/kg (i.p.) des Racemats der alpha-Liponsäure 118 %, bei 30 mg/kg i.p. des (+)-Enantiomers 157 % und bei 30 mg/kg i.p. des (-)-Enantiomers 85 % Änderung der Leistungsdichte des beta-2-Bandes im frontalen Kortex.
Diese Untersuchung erfolgte analog der Methode Dimpfel et al, Neuropsychobiology 16: 163 - 168, (1986) mit der Änderung, daß die Ableitung vom Hippokampus anstelle des Thalamus erfolgt. (Radioelectroencephalography (Tele-Stereo-EEG) in the rat as a pharmacological model to differentiate the central action of flupirtine from that of opiates, diazepam and phenobarbital)
Männliche Fischer-344 Ratten wurden im Alter von 4 bis 5 Monaten 4 bipolar konzentrische Elektroden zusammen mit einem Mikrostecker auf einer gemeinsamen Basisplatte implantiert. Der Stecker diente der Aufnahme eines 4-Kanal-Senders zur telemetrischen Übertragung der aus frontalem Kortex, Hippokampus, Striatum und Formatio Reticularis abgeleiteten Feldpotentiale. Die Signale wurden auf einem Pro Science Computer System in Echtzeit einer Fast Fourier Transformation unterworfen und die Leistungsdichtespektren jeweils über 15 Minuten gemittelt. Die Unterteilung der Spektren in 6 verschiedene Frequenzbereiche erlaubte die Erfassung pharmakonspezifischer Veränderungen in Bezug auf die jeweils vor der Applikation gemessenen Vorwerte innerhalb dieser Frequenzbänder.
Zum Applikationsprotokoll der Substanzen: Die Substanzen wurden intraperitoneal 45 Minuten nach Beginn der Messungen (Vorwert) injiziert. Fünf Minuten später wurden die Messungen wieder gestartet, mindestens über die nächsten 2 Stunden kontinuierlich analysiert und in 15-minütigen Perioden zusammengefaßt. Die Testsubstanzen (zum Beispiel Thioctsäure) wurden in einer Dosierung von 30 mg/kg appliziert. […]

[2] = tested on: Hippocampusschnitt-Präparat von morphiumabhängigen Ratten; assay: Hippocampal slice preparation of morphine-dependent rats after 16 h withdrawal, excitability at decreasing Mg++; conditions: slices 16 h after morphine withdrawal (2 mg/kg s.c. twice daily for 2 weeks), tested at 100 µM
Protocol: Die bei Ratten 16 Stunden nach dem Entzug von Morphium (2 mg/kg Morphium subcutan, 2 x täglich über 2 Wochen lang) aus dem Hippocampus entnommenen Präparate wurden abnehmenden Magnesiumkonzentrationen im Superfusionsmedium ausgesetzt, um Platizitätsveränderungen bei der Erregbarkeit der Pyramidenzellen nachweisen zu können. Die elektrisch ausgelösten und spontanen Entladungen wurden in Abwesenheit und Gegenwart der S(-)-Form der a-Liponsäure beobachtet. […] Hierdurch ergibt sich eine Anwendung/Verwendung von a-Liponsäure bei Entziehungserscheinungen bei Drogenabhängigkeit.
Zwei Gruppen ausewachsener, männlicher CD-Ratten (Charles River Wiga) erhielten handelübliches Rattenfutter ad libitum. In den beiden Versuchwochen erhielten die Tiere der ersten Gruppe zweimal täglich 2 mg/kg Morphium. Der Kontrollgruppe wurde Kochsalzlösung injiziert. Das Körpergewicht wurde täglich registriert. 16 Stunden vor Beginn der Messung der Erregbarkeit ex vivo erhielten die mit Morphium behandelten Tiere keine Injektion mehr, um den Entzug einzleiten.
Die Tiere wurden in leichter Narkose ausgeblutet, das Gehirn wurde in toto entnommen und die Formatio hippocampi unter stereomikroskopischer Kontrolle isoliert. […]

[3] = tested on: Hippocampusschnitt-Präparat von ethanolabhängigen Ratten; assay: Hippocampal slice preparation of ethanol-dependent rats after 16 h withdrawal, excitability at decreasing Mg++; conditions: slices 16 h after ethanol withdrawal (5 g/kg/day for 2 weeks), tested at 246 pg/ml
From the text: Die bei Ratten 16 Stunden nach dem Absetzen von Ethanol (5 g/kg/Tag Ethanol über einen Zeitraum von 2 Wochen) aus dem Hippocampus entnommenen Präparate wurden abnehmenden Magnesiumkonzentrationen im Superfusionsmedium ausgesetzt, um Plasizitätsveränderungen bei der Erregbarkeit der Pyramidenzellen nachweisen zu können. Die elektrisch ausgelösten und spontanen Entladungen wurden in Abwesenheit und Gegenwart der S(-)-Form der a-Liponsäure beobachtet.
Zwei Gruppen ausgewachsener, männlicher CD-Ratten (Charles River Wiga) erhielten handelsübliches Rattenfutter ad libitum. Das Trinkwasser wurde durch den Zusatz von 1 g Glukose/Liter gesüßt. Eine der Gruppen erhielt Wasser, das 5 % Ethanol enthielt. Die von den Tieren aufgenommene Wassermenge wurde täglich bestimmt und betrug in beiden Gruppen durchschnittlich 40 ml. Folglich nahm die Ethanolgruppe während des zweiwöchigen Versuches - ausgehend von ihrem durchschnittlichen Gewicht - innerhalb von 24 Stunden etwa 5 g/kg Ethanol auf.
Den Tieren wurde das modifizierte Trinkwasser über einen Zeitraum von 2 Wochen verabreicht. Außerdem wurde das Körpergewicht täglich ermittelt, wobei zwischen den beiden Gruppen keine Differenz beobachtet werden konnte. 16 Stunden vor Beginn der Messung der Erregbarkeit ex vivo erhielten die mit dem Ethanol behandelten Tiere ebenfalls glukosehaltiges Trinkwasser, um den Entzug einzuleiten. […]

Which results are given for `O=C(O)CCCCC(S)CCS` (stereo not shown) [Dihydroliponsäure, 6,8-Dimercapto-octansäure]?
Ödemhemmung in % ([1]; 50 mg/kg intraperitoneal): 63%; Ödemhemmung in % ([1]; 200 mg/kg intraperitoneal): 73%

`O=C(O)CCCC[C@@H]1CCSS1` [(+)-Enantiomers, R(+)-a-Liponsäure] was tested. Which “Änderung der Leistungsdichte des beta-2-Bandes im frontalen Kortex” value (EEG der Ratte) did it give?
The value was 157%.

Which results are given for `O=C(O)CCCC[C@H]1CCSS1` [(-)-Enantiomers, S(-)-a-Liponsäure]?
Änderung der Leistungsdichte des beta-2-Bandes im frontalen Kortex (EEG der Ratte): 85%; spontane Entladungen ([2]; decreasing Mg++): abzuschwächen; Spitzenamplituden der Population ([2]; lower Mg++ concentrations): auf Normalwerte zu senken; ausgelöste Entladungen [3]: vollständige Dämpfung

Which “Änderung der Leistungsdichte des beta-2-Bandes im frontalen Kortex” value (EEG der Ratte) does the source give for `O=C(O)CCCCC1CCSS1` (racemic) [α-Liponsäure, reference compound] here?
Its value is 118%.

And the Ödemhemmung in % ([1]; 25 mg/kg intraperitoneal)?
The Ödemhemmung in % was 14%.

What about the Ödemhemmung in % ([1]; 50 mg/kg intraperitoneal) of the same compound?
The Ödemhemmung in % was 16%.

— patent publication EP0530446A2, “Use of sulfur containing carboxylic acids for combatting pathophysiologic excitatory disorders and related diseases as well as allergic diseases and their preparation as medicament” (ASTA Medica Aktiengesellschaft, priority 1991, dated 1993)
